{
  "source": "paper PMC7576482",
  "about": "“Inhibitory Activity of Quercetin 3-O-Arabinofuranoside and 2-Oxopomolic Acid Derived from Malus domestica on Soluble Epoxide Hydrolase” (Molecules, 2020)",
  "key": {"[1]": {"biological_target": "T1, soluble epoxide hydrolase (sEH) (Homo sapiens, UniProt P34913)", "T1 construct": "purchased Cayman (Ann Arbor, MI, USA) 10011669", "T1 sequence (P34913 1-555)": "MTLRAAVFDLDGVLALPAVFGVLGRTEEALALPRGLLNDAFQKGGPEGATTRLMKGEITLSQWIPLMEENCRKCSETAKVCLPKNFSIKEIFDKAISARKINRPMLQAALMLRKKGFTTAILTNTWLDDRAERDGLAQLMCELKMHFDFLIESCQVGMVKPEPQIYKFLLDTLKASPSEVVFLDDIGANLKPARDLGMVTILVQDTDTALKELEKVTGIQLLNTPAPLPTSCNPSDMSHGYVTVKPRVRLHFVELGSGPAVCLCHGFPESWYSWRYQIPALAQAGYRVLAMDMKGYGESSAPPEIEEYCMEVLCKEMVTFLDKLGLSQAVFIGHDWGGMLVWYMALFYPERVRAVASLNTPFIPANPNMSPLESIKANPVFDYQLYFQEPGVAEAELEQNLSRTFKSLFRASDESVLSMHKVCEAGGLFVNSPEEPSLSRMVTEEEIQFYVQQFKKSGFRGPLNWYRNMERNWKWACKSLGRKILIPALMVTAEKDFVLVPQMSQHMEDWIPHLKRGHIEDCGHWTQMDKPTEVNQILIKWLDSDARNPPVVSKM", "assay": "sEH assay (PHOME substrate, fluorescence)", "assay_type": "biochemical", "settings": "triplicated experiments; 37 °C, pH 7.0, PHOME substrate; read-out: IC50 Value, inhibitory activity on sEH", "method": "The inhibitory activity of each concentration of compound was calculated based on the difference in enzyme products with and without the presence of the compound using Equation (1). […] To calculate the half-maximal inhibitory concentration of the inhibitors (IC50), inhibition rate values were fitted using Equation (2).\n(§1) The assays were carried out at 37 °C in 0.025-M bis-tris-HCL buffer, pH 7.0, containing 0.1% Bovine Serum Albumin B. PHOME (~2.6 μM) was used as a substrate. The final volume of tests was […] in ~10 ng/mL sEH. The products were monitored at 330 nm of excitation and 465 nm emission for 40 min.\nThe inhibition rate was calculated according to the following equations:Inhibition effect rate (%) = [(ΔC − ΔS)/ΔC] × 100(1) where ΔC and ΔS represent the gap of control and inhibitor during reaction, respectively. y = y0 + [(a × x)/(b + x)](2) where “y0” is the point on the axis of ordinates, “a” denotes the difference between the maximum and minimum values, and “b” refers to the “x” value at 50%."}, "[2]": {"biological_target": "T1, soluble epoxide hydrolase (sEH)", "assay": "sEH enzyme kinetic study (Lineweaver-Burk and Dixon plots)", "assay_type": "biochemical", "settings": "for Ki: Dixon plots, read-out: ki (inhibition constant); for Binding Mode: Lineweaver-Burk plots", "method": "The enzyme kinetic study was performed to find the binding position of the inhibitor into sEH. The initial velocity (v0) for the three different concentrations of inhibitors was calculated relative to the substrate concentrations (1.1, 1.5, 2.2, 3.1, 6.2, and 12.5 μM). The inverse of these concentrations and v0 values were used to construct Lineweaver-Burk plots.\nAs presented in Figure 2F–I and Table 1, the inhibition constant (ki) values were calculated by Dixon plots. Inhibitors 1–4 were calculated to be ki values ranging from 2.9 ± 0.8 μM to […]. Among them, inhibitor 4 had the strongest ki value of 2.9 ± 0.8 μM.\nas §1"}, "[3]": {"set-up": "method as in PMID 19794443", "settings": "cited from earlier work"}},
  "note": "Values joined by “and” are separate entries in the source; they are usually repeats but may differ in a detail not shown here. Identical values can stand only once.",
  "data": [
    {"smiles": "O=c1c(OC2O[C@H](CO)[C@@H](O)[C@@H]2O)c(-c2ccc(O)c(O)c2)oc2cc(O)cc(O)c12", "note": "(stereo in doubt) [Compound 1, quercetin 3-O-arabinofuranoside]", "values": [
      {"measurement": "IC50", "setting": "[1]", "value": "< 50 µM and 39.3 µM"},
      {"measurement": "Ki", "setting": "[2]", "value": 39.5, "unit": "µM"},
      {"measurement": "Binding Mode", "setting": "[2]", "value": "Mixed"}
    ]},
    {"smiles": "O=C(O)CCCCCCCCCCCNC(=O)NC12CC3CC(CC(C3)C1)C2", "note": "[AUDA, 12-(3-adamantan-1-yl-ureido)dodecanoic acid]", "values": [
      {"measurement": "solubility", "setting": "[3]", "value": "low solubility"}
    ]},
    {"smiles": "C[C@H]1[C@H](C)CC[C@]2(C(=O)O)CC[C@]3(C)C(=CC[C@@H]4[C@@]5(C)CC[C@H](O)C(C)(C)[C@@H]5CC[C@]43C)[C@H]12", "note": "[Compound 2, ursolic acid]", "values": [
      {"measurement": "IC50", "setting": "[1]", "value": "84.5 ± 9.5", "unit": "µM"},
      {"measurement": "Ki", "setting": "[2]", "value": 38.5, "unit": "µM"},
      {"measurement": "Binding Mode", "setting": "[2]", "value": "Noncompetitive"}
    ]},
    {"smiles": "C[C@H]1[C@H](C)CC[C@]2(C(=O)O)CC[C@]3(C)C(=CC[C@@H]4[C@@]5(C)C[C@@H](O)[C@H](O)C(C)(C)[C@@H]5CC[C@]43C)[C@H]12", "note": "[Compound 3, corosolic acid]", "values": [
      {"measurement": "IC50", "setting": "[1]", "value": "51.3 ± 4.9", "unit": "µM"},
      {"measurement": "Ki", "setting": "[2]", "value": 34.6, "unit": "µM"},
      {"measurement": "Binding Mode", "setting": "[2]", "value": "Noncompetitive"}
    ]},
    {"smiles": "C[C@@H]1CC[C@]2(C(=O)O)CC[C@]3(C)C(=CC[C@@H]4[C@@]5(C)CC(=O)[C@H](O)C(C)(C)[C@@H]5CC[C@]43C)[C@@H]2[C@]1(C)O", "note": "[Compound 4, 2-oxopomolic acid]", "values": [
      {"measurement": "IC50", "setting": "[1]", "value": "< 50 µM and 11.4 µM"},
      {"measurement": "Ki", "setting": "[2]", "value": 2.9, "unit": "µM"},
      {"measurement": "Binding Mode", "setting": "[2]", "value": "Noncompetitive"}
    ]}
  ]
}
